Results taken from US11225469B2, “Inhibitors of phosphoglycerate dehydrogenase (PHGDH) and uses thereof” (Whitehead Institute for Biomedical Research, priority 2015, dated 2022).

What was measured:
[1] = system: MDA-MB-468 cells; test: Metabolite profiling and 13C labeling in MDA-MB-468 cells (LC-MS); assay type: cell-based, human
Method: To track the effects of PHGDH inhibition on glycolysis and serine biosynthesis, MDA-MB-231 and MDA-MB-468 cells were fed universally labeled carbon-13 glucose and the intracellular ratio of labeled to unlabeled glucose was measured at the times indicated in FIG. 3E.
Cells were evenly seeded at 400,000 cells per well of a 6-well plate and allowed to attach for 24 hours. Prior to all labeling experiments, cells were pretreated with 10 μM compound or an equivalent volume of DMSO in RPMI for 1 hour. For steady-state metabolite concentrations, cells were washed with PBS prior to pretreatment and treatment in RPMI lacking serine and glycine. For labeling experiments, U-^13C-glucose, U-^13C-serine, or U-^13C-glycine replaced the corresponding unlabeled RPMI component. Cells were washed in 4° C. 0.9% (w/v) NaCl in LCMS-grade water and extracted in 1 mL/well of 80:20 (v/v) methanol:water with 0.01 ng/mL Val-d8 and Phe-d8 as internal extraction standards. The extraction solvent was dried under nitrogen gas and metabolite samples were stored at −80° C. until analysis. Triplicate identically seeded wells were trypsinzed and analyzed with a Multisizer Coulter Counter (Beckman Coulter) to obtain cell counts and total cell volumes for normalization.
Dried metabolites were resuspended in 100 μL water, centrifuged at 13,000×g at 4° C. for 10 minutes, and the supernatant recovered for analysis. Chromatographic separation was achieved by injecting 1 pi of sample on a SeQuant ZIC-pHILIC Polymeric column (2.1 3 150 mm […], EMD Millipore). Flow rate was set to 0.1 ml per minute, column compartment was set to 25° C., and autosampler sample tray was set to 4° C. Mobile Phase A consisted of 20 mM ammonium carbonate, 0.1% ammonium hydroxide. Mobile Phase B was 100% acetonitrile. The mobile phase gradient (% B) was as follows: 0 min 80%, 30 min 20%, 31 min 80%, 42 min 80%. All mobile phase was introduced into the ionization source set with the following parameters: sheath gas=40, auxiliary gas=15, sweep gas=5, spray voltage=−3.1 kV or +3.0 kV, capillary temperature=275° C., S-lens RF level=40, probe temperature=350° C. Metabolites were monitored using a polarity-switching full-scan method and identified by accurate mass (±20 ppm) and retention time within 15 seconds of a previously run pure standard. Metabolite peaks were identified and integrated with Xcalibur v.2.2 software (Thermo Fisher Scientific) and normalized to internal standard and to total cell volume, m/z ratios for stable isotopically labeled metabolites were obtained from IsoMETLIN (See, e.g., Cho, K. et al. “isoMETLIN: a database for isotope-based metabolomics.” Anal Chem 86, 9358-9361 (2014)) and corrected for natural abundance.

[2] = system: MDA-MB-468 cells; test: Cell cycle analysis; assay type: cell-based, human; conditions: after 48 hours

## Cc1cc(C)nc(NC(=S)N2CCN(Cc3ccc(C(F)(F)F)cc3)CC2)c1 [Compound 267, N-(4,6-dimethylpyridin-2-yl)-4-(4-(trifluoromethyl)benzyl)piperazine-1-carbothioamide]
[1]
  intracellular glucose concentration: did not change
[1]; treatment for 4 hours
  incorporation of 13C from exogenous U-13C-serine into AMP and dTMP: decreased
[1]; universally labeled carbon-13 glucose
  reduction of labeled (glucose-derived) intracellular serine: > 75%
[1]; washout
  reversibility of inhibition of serine synthesis in cells: reversible
[2]
  cell cycle effect: G1/S arrest
